The record followed here is paper PMC5773487, “Harnessing insulin- and leptin-induced oxidation of PTP1B for therapeutic development” (Nature Communications, 2018).

The subject of assay [1] is insulin signaling in 293T cells. Put plainly: insulin signaling in 293T cells (immunoblot). The class given is cell-based. To be noted: for insulin-induced activation of AKT (pThr308) / insulin-induced phosphorylation of insulin receptor β-subunit (IR-β): 293T cells, compound 2 μM 1 h, insulin 25 nM. The protocol: To study the effect of chelerythrine and protopine on insulin signaling we used 293T cells (ATCC) and cultured in DMEM containing 10% FBS. For insulin signaling, cells were serum starved for 16 h and then treated with chelerythrine (2 µM) or protopine (2 µM) for 1 h. Following which, cells were treated with 25 nM insulin for various times (0, 5, 10, 20 min) at 37 °C. Cells were washed with PBS and lysed in de-gassed RIPA lysis buffer (25 mM HEPES pH 7.5, 150 mM NaCl, 0.25% Deoxychloate, 10% Glycerol, 25 mM NaF, 10 mM MgCl2, 1 mM EDTA, 1% Triton X-100, 0.5 mM PMSF, 10 mM Benzamidine, cOmplete protease inhibitor cocktail (Roche)). Soluble proteins were harvested by centrifugation at 13,000×g for 10 min at 4 °C and quantitated. Total proteins in the cell lysates were separated by SDS-PAGE and tyrosyl phosphorylation of the IR-β subunit and downstream AKT activation was monitored. To test the effect of suppressing H2O2 levels on the function of the compounds, catalase was ectopically expressed in cells for 24 h. Following which, the cells were treated with the compounds as mentioned above. […] Catalase expression was detected in the cell samples with a rabbit polyclonal antibody (Abcam, ab52477).
Mammalian expression plasmids used in this study were as follows: pCMV-FLAG and pCMV-FLAG-PTP1B (wt and -mut2). Empty vector, FLAG-PTP1B-wt, or FLAG-PTP1B-mut2 were transfected into 293T cells for 24 h, following which, cells were serum starved for 8 h and then treated with chelerythrine (2 µM) for 1 h. Subsequently, cells were treated with 10 nM insulin for various times (0, 10, 20 min) at 37 °C. Cells were washed with PBS and lysed in de-gassed RIPA lysis buffer (25 mM HEPES pH 7.5, 150 mM NaCl, 0.25% Deoxycholate, 10% Glycerol, 25 mM NaF, 10 mM MgCl2, 1 mM EDTA, 1% Triton X-100, 0.5 mM PMSF, 10 mM Benzamidine, cOmplete protease inhibitor cocktail (Roche)). Soluble proteins were harvested by centrifugation at 13,000×g for 10 min at 4 °C and quantitated. Total proteins in the cell lysates were separated by SDS-PAGE and tyrosyl phosphorylation of the IR-β subunit was analyzed by immunoblotting.
Background: Immunoblotting shows a protein as a band on a membrane.

Assay [2] deals with high fat diet-fed C57Bl6/J mice. As to the kind of experiment: body weight, glucose and insulin tolerance tests in diet-fed mice. Type of assay: in vivo. The settings on record: for glucose tolerance (GTT) / insulin sensitivity (ITT): HFD fed 14-week-old male mice; for glucose tolerance (GTT): D-glucose 2 mg g−1; for insulin sensitivity (ITT): insulin 0.75 mU g−1. The protocol: Animal experiments were performed according to protocols approved by the Institutional Animal Use and Care Committee of Cold Spring Harbor laboratory. Ten week-old male C57bl6/J mice fed chow diet or high fat diet (D12492) were acclimatized for 10 days under standard conditions before experiments. Mice were intraperitoneally (i.p.) injected once daily with vehicle, 3 mg kg^−1 of chelerythrine or 3 mg kg^−1 of protopine for 30 days. Mice were killed after 6 h of fasting, and serum samples were collected to measure the metabolic parameters and tissue samples were collected for studying changes in signaling. No animals were excluded from the analysis.
Glucose in tail blood was measured using a glucometer (One-Touch Basic; Lifescan, CA). For glucose tolerance tests (GTTs), mice were fasted for 10 h and then injected with 20% D-glucose (2 mg g^−1 body weight) and the blood glucose was monitored immediately before and at 15, 30, 60, and 120 min following the injection. For insulin tolerance tests (ITTs), 4 h fasted animals were given insulin (0.75 mU g^−1) and blood glucose was measured immediately before and at 30, 60, and 120 min post-injection. Statistical analysis was performed using ANOVA for both GTT and ITT.

Another assay concerns the target T1, PTP1B-OX (Homo sapiens, UniProt P18031).
T1 construct: Purified PTP1B (1–321) (100 nM) was mixed with increasing concentrations of H2O2; 6xHis (C); made in house; host or cells: E. coli BL21 (DE3)-RIL
T1 sequence (P18031 1-321): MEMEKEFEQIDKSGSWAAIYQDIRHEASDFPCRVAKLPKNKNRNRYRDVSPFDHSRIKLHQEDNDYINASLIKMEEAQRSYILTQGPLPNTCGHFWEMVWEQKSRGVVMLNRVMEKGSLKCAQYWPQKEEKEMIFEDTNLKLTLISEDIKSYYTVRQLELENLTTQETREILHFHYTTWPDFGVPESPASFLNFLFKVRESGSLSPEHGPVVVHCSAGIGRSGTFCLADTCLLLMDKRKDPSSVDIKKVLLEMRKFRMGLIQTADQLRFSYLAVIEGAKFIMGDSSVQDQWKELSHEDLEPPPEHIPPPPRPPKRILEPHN
As to the kind of experiment: reduction and reactivation of reversibly oxidized PTP1B by TCEP, DiFMUP substrate. The settings on record: for inhibition of reduction and reactivation (stabilization) of PTP1B-OX: in words. Type of assay: biochemical. The method, then: Therefore, our approach has been to adapt this assay, which we used to screen for conformation-sensor scFvs[17], now to screen for small molecules that act through a similar mechanism. Our primary screening assay tested the ability of small molecule inhibitors to antagonize the reduction and reactivation of the oxidized conformation of PTP1B, similar to that of scFv45 (Fig. 4a).
Purified PTP1B (1–321) (100 nM) was mixed with increasing concentrations of H2O2 (0.05–100 mM) in phosphatase assay buffer (50 mM HEPES, pH 7.0, 100 mM NaCl, 0.1% BSA) at room temperature for 5 min. From this reaction mixture PTP1B (10 nM) was used to monitor phosphatase activity using DiFMUP as the substrate, with or without 5 mM TCEP. Activity of each sample was compared to that of the untreated PTP1B in the presence of 5 mM TCEP.
To screen the LOPAC library against PTP1B-OX, 0.5 μl of 1 mM compound in 100% DMSO was added to 384-well plates, resulting in a final compound concentration of 10 μM for the primary screen. Recombinant PTP1B (100 nM) was reversibly oxidized and inactivated with H2O2 (4 mM). The phosphatase activity was restored by a quick buffer exchange and addition of reducing agent (TCEP). PTP1B-OX was incubated with LOPAC compounds (10 μM) in the assay buffer (50 mM HEPES pH 7.0, 100 mM NaCl, 0.005% Tween, 2 mM EDTA) and the effect of individual compound on stabilizing the reversibly oxidized conformation was assessed by the phosphatase assay under reducing conditions using DiFMUP as substrate. scFv45 was used as positive control.

Broadly, the Ki is a measure of affinity in units of concentration, obtained from inhibition or displacement. High values mean weaker binding, low ones tighter binding. A word on the IC50: it is the concentration needed to halve the response being measured.

“Also recorded” adds a separate entry of the source.

In the case of `COc1ccc2c(c[n+](C)c3c4cc5c(cc4ccc23)OCO5)c1OC` [chelerythrine], in assay [1], the “basal signaling in the absence of insulin or leptin” value is listed as “no impact”; the “insulin-induced activation of AKT (pThr308)” value is “enhanced”; the “insulin-induced phosphorylation of insulin receptor β-subunit (IR-β)” value is “enhanced and sustained phosphorylation”. Besides, the “stimulatory effect on IR-β phosphorylation and AKT activation upon catalase overexpression” value in assay [1] (293T cells expressing catalase, 2 μM) is recorded as “ablated”. For the same molecule, in assay [1] (293T, 2 μM, insulin 10 nM), the “insulin signaling in cells expressing PTP1B-mut2” value is “insensitive”; the “insulin signaling in control and PTP1B-wt expressing cells” value was “elevated insulin signaling”. For the same molecule, the observed cellular efficacy in assay [1] (reviewer's remark in peer review file) was under 2 µM. Moreover, in assay [2], the “glucose tolerance (GTT)” value is reported as “improved” and the “insulin sensitivity (ITT)” value is given as “improved”. In assay [2] (chow diet-fed mice, 3 mg kg−1 i.p. once daily), the “change in body weight, chow diet” value was “no significant change”. Besides, in assay [2] (high fat diet-fed mice, 3 mg kg−1 i.p. once daily), the “decrease in body weight” value is ~ 3%. Moreover, on PTP1B-OX, the “IC50 relative to sanguinarine” value is “fivefold lower” and the “preference for PTP1B-OX over reduced PTP1B” value is given as “at least 100 fold”. For the same molecule, affinity at PTP1B-OX (DiFMUP substrate) was put at a Ki of 5 µM. For the same molecule, the IC50 on PTP1B-OX (wild-type PTP1B-OX, reactivation by TCEP, DiFMUP substrate, read-out: IC50 against PTP1B-OX) is 5 µM.
Regarding `CN1CCc2cc3c(cc2C(=O)Cc2ccc4c(c2C1)OCO4)OCO3` [protopine], in assay [1], the “insulin-induced activation of AKT (pThr308)” value is reported as “no significant effect” and the “insulin-induced phosphorylation of insulin receptor β-subunit (IR-β)” value was “no significant effect”. Also, the “weight loss in high fat diet-fed mice” value in assay [2] (3 mg kg−1 i.p. once daily, in words) was “not observed”. In assay [2], the “glucose tolerance (GTT)” value was “did not improve” and the “insulin sensitivity (ITT)” value is recorded as “did not improve”. Further, at PTP1B-OX, the “inhibition of reduction and reactivation (stabilization) of PTP1B-OX” value is reported as “did not inhibit; also recorded: ineffective; also recorded: did not stabilize”.

B1: scFv45: recombinant conformation-sensor single-chain variable fragment antibody recognizing oxidized PTP1B (antibody, V domains shown)
VH: TVTLDESGGGLQAPGGALSLVCKASGFTFSSYDMGWIRQAPGKGLEYVAGITDNGRYASYGSAVDGRATISRDNGQSSVRLQLNNLRAEDTGTYYCARDDGSGWTGNSIDAWGHGTEVIVSE
VL: ALTQPSSVSANPGGTVKITCSGSSSAYGYGWYQQKSPGSAPVTVIYNNNKRPSNIPSRFSGSKSGSTGTLTITGVQAEDEAVYFCGSEDSSTDAIFGAGTTLTVL
As to B1, in the assay with PTP1B-OX, the “inhibition of reduction and reactivation (stabilization) of PTP1B-OX” value is “impaired in a dose-dependent manner”.
